In paper PMC6212833 (mBio, 2018):
Structures can show the parent of a compound that is named as a salt. Where two headings read alike, the source gives them in different places.

Key:
[1] = system: B. mandrillaris trophozoites; experiment: microbe, parasite or virus in culture; assay type: cell-based, Balamuthia mandrillaris; conditions: for inhibition at 20 µM: Balamuthia mandrillaris; for % Inhibition: 20 µM
[2] = system: H4 human neuroglioma cells; experiment: Secondary screening dose response, toxicity to H4 cells; assay type: cell-based; conditions: 72 h, approximated from dose-response curves
[3] = system: HFF-1 human fibroblast cells; experiment: Secondary screening dose response, toxicity to HFF-1 cells; assay type: cell-based; conditions: 72 h, approximated from dose-response curves, read-out: HFF1 IC50
Procedure: (§2) Secondary screening of hit compounds consisted of dose-response experiments to measure the toxicity of each compound to B. mandrillaris trophozoites, HFF-1 human fibroblast cells, and H4 human neuroglioma cells. Four 384-well plates were prepared prior to addition of drug as follows: one opaque plate (Corning) seeded with 3,000 HFF-1 cells per well in 60 µl complete media, one opaque plate seeded with 2,000 H4 cells per well in 60 µl complete media, one opaque plate containing 30 µl axenic media, and one clear plate (Corning) containing 30 µl axenic media. Opaque plates were used to measure the viability of trophozoites in the CTG assay, and clear plates were used for microscopic examination of cyst formation. HFF-1 and H4 plates were seeded 24 h prior to drug addition. The selected primary screen hits were added from 10 mM DMSO stocks into wells of all four test plates to reach final concentrations ranging from 0.06 µM to 30 µM (10 concentrations, 2-fold serial dilution). Negative-control wells received concentrations of DMSO corresponding to the amount of DMSO in each tested drug well (reaching a maximum of 0.3% DMSO). B. mandrillaris trophozoites were resuspended in axenic media and added to the plates containing drug dilutions in axenic media at a density of 3,000 amoebae per well in a final volume of 60 µl media. All plates were incubated for 72 h. Throughout the incubation period, the clear-bottom B. mandrillaris plate was monitored for large-scale changes to population encystment in response to drug treatment. After the 72-h incubation, 30 µl of CTG reagent was added to all wells of the opaque assay plates and luminescence was measured with a Promega GloMax-Multi+ plate reader at 2, 4, and 8 h after CTG addition.

[4] = system: B. mandrillaris trophozoites; experiment: Secondary screening dose response, B. mandrillaris trophozoites; assay type: cell-based, Balamuthia mandrillaris; conditions: 72 h, read-out: B. mandrillaris IC50
Procedure: as §2

[5] = system: B. mandrillaris; set-up: method as in PMID 15347743, PMID 23869955, PMID 16579814; conditions: in vitro; cited from earlier work
[6] = system: B. mandrillaris trophozoites; experiment: Nitroxoline structure-activity relationship dose response (CellTiter Glo); assay type: cell-based, Balamuthia mandrillaris; conditions: for IC50: 72 h; for activity against B. mandrillaris: SAR experiments
[7] = Cytotoxicity dose response, Hep-G2; assay type: cell-based; conditions: human, Hep-G2 (liver) cells, unit not given in Table S3, drug concentrations in µM, read-out: CC50 Hep-G2 cell line
Procedure: (§1) B. mandrillaris trophozoites were seeded at 4,000 amoebae per well into opaque and clear-bottom 96-well plates (Corning). Homogenous populations of B. mandrillaris cysts generated by galactose induction were seeded at 4,000 amoebae per well into opaque 96-well plates. HFF-1 (fibroblast), H4 (glial), U87 (glial), HEK-293T (kidney), and Hep-G2 (liver) cells were seeded at 3,000 cells per well in opaque 96-well plates 24 h prior to addition of drug. Stocks of nitroxoline (Selleck Chemicals) were dissolved in 100% DMSO at 10 mM. Stocks of azithromycin (Selleck Chemicals), pentamidine isethionate (Selleck Chemicals), and miltefosine (Selleck Chemicals) were dissolved in water at 10 mM. Drug stocks were serially diluted in water to generate 12-point dilution series, which were then used to treat assay wells containing B. mandrillaris or human cells at final concentrations ranging from 0.39 µM to 400 µM in 100-µl total well volumes. Control wells were treated with vehicle (DMSO or water) at concentrations corresponding to the final vehicle concentrations in each drug dilution series. After incubation for 72 h, 50 µl of CTG was added to all assay wells. Luminescence was measured with a Promega GloMax-Multi+ plate reader 2, 4, and […] after CTG addition. All dose-response experiments were performed with at least three independent biological replicates. IC50 values were determined as previously described. To quantify encystment under treated and untreated conditions, amoebae in individual assay wells were resuspended thoroughly and the number of cysts and number of trophozoites in 10-µl samples were counted by the use of a hemocytometer (SKC, Inc.). Cysts and trophozoites are morphologically distinct, making them simple to distinguish with bright-field microscopy (example images are shown in Fig. S1 in the supplemental material). Encystment assays were performed with three independent biological replicates.

[8] = Cytotoxicity dose response, H4; assay type: cell-based; conditions: human, H4 (glial) cells, unit not given in Table S3, drug concentrations in µM, read-out: CC50 H4 cell line
Procedure: as §1

[9] = system: B. mandrillaris cysts; experiment: Dose response, viability of preformed galactose-induced cysts; assay type: cell-based, Balamuthia mandrillaris; conditions: Balamuthia mandrillaris, 72 h, preformed cysts, 12% galactose induction medium, read-out: IC50, B. mandrillaris cysts
Procedure: Following the findings of a previous study, encystment of B. mandrillaris was induced by galactose exposure ([74]). B. mandrillaris trophozoites were grown to log phase in axenic media, and galactose was added to reach a final concentration of 12% (vol/vol). Amoebae were cultured in the induction medium until trophozoites were no longer observed (approximately 10 days). Galactose-induced cysts transition back to trophozoites after approximately 3 days of incubation in galactose-free axenic medium. Therefore, all assays with cysts were completed in the induction medium. […] All incubation steps for B. mandrillaris growth were carried out at 37°C with 5% CO2.
as §1

[10] = system: B. mandrillaris; experiment: Encystment assay, counts of cysts and trophozoites; assay type: cell-based, Balamuthia mandrillaris; conditions: 72 h of treatment with different drug concentrations
Procedure: as §1

[11] = Cytotoxicity dose response, HFF-1; assay type: cell-based; conditions: human, HFF-1 (fibroblast) cells, unit not given in Table S3, drug concentrations in µM, read-out: CC50 HFF-1 cell line
Procedure: as §1

[12] = Cytotoxicity dose response, HEK-293T; assay type: cell-based; conditions: human, HEK-293T (kidney) cells, unit not given in Table S3, drug concentrations in µM, read-out: CC50 HEK-293T cell line
Procedure: as §1

[13] = Cytotoxicity dose response, U87; assay type: cell-based; conditions: human, U87 (glial) cells, unit not given in Table S3, drug concentrations in µM, read-out: CC50 U87 cell line
Procedure: as §1

[14] = system: B. mandrillaris trophozoites; experiment: Side-by-side dose response, trophozoite viability; assay type: cell-based, Balamuthia mandrillaris; conditions: Balamuthia mandrillaris, 72 h, read-out: IC50, B. mandrillaris trophozoites, 72 h
Procedure: as §1

[15] = Cytotoxicity, mean of all cell lines; assay type: cell-based; conditions: human, U87, H4, HEK-293T, HFF-1 and Hep-G2 cell lines (mean of all), unit inferred
Procedure: as §1

[16] = 8-point dose response in triplicate, read-out: IC50
[17] = Balamuthia mandrillaris, 8-point dose response in triplicate, read-out: IC50
[18] = Balamuthia mandrillaris, 8-point dose response in triplicate
[19] = 72 h, relative to positive and negative controls

CC[n+]1c(-c2ccccc2)c2cc(N)ccc2c2ccc(N)cc21 [Homidium Bromide]
inhibition at 20 µM ([1]; 72 h): 44%

Cc1c(NC(=O)c2cccnc2)c(=O)n(-c2ccccc2)n1C [Nifenazone]
IC50 ([2]; Homo sapiens): > 30 µM
IC50 ([3]; Homo sapiens, HFF-1): > 30 µM
inhibition at 20 µM ([1]; 72 h): 70%
IC50 ([4]; Balamuthia mandrillaris): > 30 µM

CN(C)c1ccc(C(=C2C=CC(=[N+](C)C)C=C2)c2ccc(N(C)C)cc2)cc1 [Gentian Violet]
inhibition at 20 µM ([1]; 72 h): 62%

C[C@@H](c1ncncc1F)[C@](O)(Cn1cncn1)c1ccc(F)cc1F [voriconazole]
inhibition of amoebic growth [5]: amoebicidal or amoebistatic activity

[O-][n+]1cccc2cccc(O)c21 [compound 16, 8-Quinolinol N-oxide]
IC50 [6, 16]: 165 µM

[H]/N=C(\N/C(=N/[H])NCCCCCCNC(=N)NC(=N)Nc1ccc(Cl)cc1)Nc1ccc(Cl)cc1 [Chlorhexidine]
inhibition at 20 µM ([1]; 72 h): 64%

6-Nitroquinolone [compound 15]
IC50 [6, 16]: 189 µM

Cc1cc(-c2ccc(/N=N/c3ccc4c(S(=O)(=O)O)cc(S(=O)(=O)O)c(N)c4c3O)c(C)c2)ccc1/N=N/c1ccc2c(S(=O)(=O)O)cc(S(=O)(=O)O)c(N)c2c1O [Evans Blue]
inhibition at 20 µM ([1]; 72 h): 74%

CNC(=C[N+](=O)[O-])NCCSCc1ccc(CN(C)C)o1 [Ranitidine]
IC50 ([2]; Homo sapiens): > 30 µM
IC50 ([3]; Homo sapiens, HFF-1): > 30 µM
inhibition at 20 µM ([1]; 72 h): 68%
IC50 ([4]; Balamuthia mandrillaris): > 30 µM

CO/N=C(\C(=O)N[C@@H]1C(=O)N2C(C(=O)O)=C(COC(N)=O)CS[C@H]12)c1ccco1 [Cefuroxime Sodium]
inhibition at 20 µM ([1]; 72 h): 41%

CN(C)CCCN1c2ccccc2CCc2ccccc21 [Imipramine]
IC50 ([2]; Homo sapiens): > 30 µM
IC50 ([3]; Homo sapiens, HFF-1): > 30 µM
inhibition at 20 µM ([1]; 72 h): 42%
IC50 ([4]; Balamuthia mandrillaris): > 30 µM

C=C1C[C@@H]2[C@H](CC[C@]3(C)C(=O)CC[C@@H]23)[C@@]2(C)C=CC(=O)C=C12 [Exemestane]
IC50 ([2]; Homo sapiens): > 30 µM
IC50 ([3]; Homo sapiens, HFF-1): > 30 µM
inhibition at 20 µM ([1]; 72 h): 47%
IC50 ([4]; Balamuthia mandrillaris): > 30 µM

O=[N+]([O-])c1cccc2ncccc12 [compound 3, 5-Nitroquinoline]
IC50 [6, 17]: 82.7 µM

c1cnc2c(c1)ccc1cccnc12 [compound 14, 1,10-Phenanthroline]
IC50 [6, 18]: 15.9 µM
activity against B. mandrillaris [6]: demonstrated activity against B. mandrillaris

CCCCCCCCCCCCCCCC[N+](C)(C)C [Cetrimonium]
inhibition at 20 µM ([1]; 72 h): 56%

Cc1ccc(O)c2ncccc12 [compound 7, 5-Methylquinolin-8-ol]
IC50 [6, 17]: 19.9 µM

O=C(O)c1ccccc1-c1c2cc(I)c(=O)c(I)c-2oc2c(I)c(O)c(I)cc12 [Erythrosine Sodium]
inhibition at 20 µM ([1]; 72 h): 66%

NC(=O)NO [Hydroxyurea]
% Inhibition [1]: 44%

C[n+]1c2cc(N)ccc2cc2ccc(N)cc21 [Acriflavinium Hydrochloride]
inhibition at 20 µM ([1]; 72 h): 33%

CC#C[C@]1(O)CC[C@H]2[C@@H]3CCC4=CC(=O)CCC4=C3[C@@H](c3ccc(N(C)C)cc3)C[C@@]21C [Mifepristone]
IC50 ([2]; Homo sapiens): > 30 µM
IC50 ([3]; Homo sapiens, HFF-1): > 30 µM
inhibition at 20 µM ([1]; 72 h): 43%
IC50 ([4]; Balamuthia mandrillaris): > 30 µM

CC[C@H]1OC(=O)[C@H](C)[C@@H](O[C@H]2C[C@@](C)(OC)[C@@H](O)[C@H](C)O2)[C@H](C)[C@@H](O[C@@H]2O[C@H](C)C[C@H](N(C)C)[C@H]2O)[C@](C)(O)C[C@@H](C)CN(C)[C@H](C)[C@@H](O)[C@]1(C)O [Azithromycin]
CC50 at 72 h [7]: 86.4 µM
CC50 at 72 h [8]: 95 µM
IC50 [9]: 788 µM
encystment response [10]: no substantial number of cysts was observed at any concentration
inhibition of amoebic growth [5]: amoebicidal or amoebistatic activity
CC50 at 72 h [11]: 116 µM
CC50 at 72 h [12]: 120 µM
CC50 at 72 h [13]: 55 µM
IC50 [14]: 244 µM
CC50 at 72 h [15]: 94.4 µM

CC(C)c1c(C(=O)Nc2ccccc2)c(-c2ccccc2)c(-c2ccc(F)cc2)n1CC[C@@H](O)C[C@@H](O)CC(=O)O [Atorvastatin]
IC50 ([2]; Homo sapiens): > 30 µM
IC50 ([3]; Homo sapiens, HFF-1): > 30 µM
inhibition at 20 µM ([1]; 72 h): 40%
IC50 ([4]; Balamuthia mandrillaris): > 30 µM

Cc1cc(N)c2ccccc2[n+]1CCCCCCCCCC[n+]1c(C)cc(N)c2ccccc21 [Dequadin]
inhibition at 20 µM ([1]; 72 h): 69%

Oc1ccc(Cl)cc1Cc1cc(Cl)ccc1O [Dichlorophene, Dichlorophen, Dichlorophene]
inhibition at 20 µM ([1]; 72 h): 42%

Oc1cccc2cccnc12 [compound 2, 8-Hydroxyquinoline]
IC50 [6, 17]: 30.5 µM

CC(=O)[O][Hg][c]1ccccc1 [Phenylmercuric Acetate]
% Inhibition [1, 19]: 107%

Oc1ccc(Br)c2cccnc12 [compound 6, 5-Bromo-8-hydroxyquinoline]
IC50 [6, 17]: 48.9 µM

O=C(O)c1ccc2ccccc2n1 [compound 18, 2-Quinolinecarboxylic acid]
IC50 ([6]; Balamuthia mandrillaris): 884 µM

N=C(N)c1ccc(/N=N/Nc2ccc(C(=N)N)cc2)cc1 [Diminazene]
inhibition at 20 µM ([1]; 72 h): 46%

Nc1[nH]c(=O)ncc1F [flucytosine]
inhibition of amoebic growth [5]: little to no inhibition

Plicamycin
IC50 [2]: < 0.06 µM
IC50 [3]: < 0.06 µM
% Inhibition [1]: 45%
IC50 ([4]; approximated from dose-response curves): > 30 µM

O=S(=O)(O)c1ccc(O)c2ncccc12 [compound 13, 8-Hydroxy-5-quinolinesulfonic acid]
IC50 ([6]; 8-point dose response in triplicate, listed as 8-Hydroxy-5-quinolinesulfonic acid [13]): 338 µM
IC50 [6, 18]: 338 µM
activity against B. mandrillaris [6]: inactive

O=[N+]([O-])c1cnc2ccccc2c1O [compound 19, 3-Nitro-4-quinolinol]
IC50 [6, 18]: 1320 µM

NC(=O)c1ccc[n+]([C@@H]2O[C@H](COP(=O)([O-])OP(=O)(O)OC[C@H]3O[C@@H](n4cnc5c(N)ncnc54)[C@H](O)[C@@H]3O)[C@@H](O)[C@H]2O)c1 [Nadide]
inhibition at 20 µM ([1]; 72 h): 87%

OC(Cn1cncn1)(Cn1cncn1)c1ccc(F)cc1F [fluconazole]
inhibition of amoebic growth [5]: little to no inhibition

C[CH2][Hg][S]c1ccccc1C(=O)O [Ethylmercurithiosalicylic acid]
% Inhibition [1, 19]: 107%

CCOc1ccc([N+](=O)[O-])c2cccnc12 [compound 17, 8-Ethoxy-5-nitroquinoline]
IC50 [6, 16]: 434 µM

Nc1ccc(S(=O)(=O)Nc2ncccn2)cc1 [sulfadiazine]
inhibition of amoebic growth [5]: little to no inhibition

CCCCC(CC)CNC(=N)NC(=N)NCCCCCCNC(=N)NC(=N)NCC(CC)CCCC (centres unmarked) [Alexidine Hydrochloride]
inhibition at 20 µM ([1]; 72 h): 79%

Demecarium Bromide
% Inhibition [1, 19]: 60%

COCc1c(C(C)C)nc(C(C)C)c(/C=C/[C@@H](O)C[C@@H](O)CC(=O)O)c1-c1ccc(F)cc1 [Cerivastatin, Cerivastatin Na, Cerivastatin]
IC50 ([2]; Homo sapiens): 0.2 µM
IC50 ([3]; Homo sapiens, HFF-1): < 0.06 µM
inhibition at 20 µM ([1]; 72 h): 66%
IC50 ([4]; Balamuthia mandrillaris): 9 µM
